# Test results as given in US20230285347A1, “Preterm Labour with Prostaglandin E2 Receptor Agonists” (IMPERIAL COLLEGE INNOVATIONS LIMITED, priority 2020, published 2023).
# Key:
# EP2 [1] = biological target: T1, EP2 (Homo sapiens, UniProt P43116); experiment: Intracellular cAMP in primary human myocytes from term pregnant non-labouring myometrium; format: cell-based; conditions: butaprost 10 μM, AH13205 10 μM, PGN9856i 100 nM, FIG. 5
# T1 construct: primary human myocytes cultured from term pregnant, non-labouring, myometrium; endogenous in cells; host or cells: primary human myometrial cells (myocytes) cultured from pregnant myometrium
# Description: In the myometrium EP2 is an important regulator of parturition. To assess if PGN9856i, butaprost and AH13205 induce similar second messenger profiles in the myometrium as HEK 293 cells, primary human myocytes cultured from term pregnant, non-labouring, myometrium, were treated with each ligand and intracellular cAMP, calcium and PGE2 release was measured.
# Myometrial tissue was acquired at St. Mary's hospital, Queen Charlotte and Chelsea hospital and Charing Cross hospital, London. Tissue was obtained from women provided with informed written consent with the approval from the Riverside Research Ethics Committee (RREC 3357, 1997-5089, 19/LO/1657) and experiments were carried out under the committee's guidelines and recommendations. Tissues were obtained from term (38+0-40 weeks gestation) pregnant women undergoing elective caesarean from the upper margin of the incision made at the lower segment of the uterus, before or after the onset of labor. Tissues taken from women in early labour (<3 cm cervical dilation) or late labour (>3 cm cervical dilation) with/without induction with syntocinon, an oxytocin analogue. Tissue was only taken from uncomplicated, singleton pregnancies.
# Tissue was stored at 4° C. in phosphate buffered saline until fine dissection with scalpels and dissociation at 37° C. for 1 hour in a sterile-filtered mix of Dulbecco's modified Eagle's medium (DMEM) (Sigma Aldrich)/Ham's F-12 Nutrient Mixture (Sigma Aldrich) and serum-free DMEM (Sigma Aldrich) (1:1 v/v) containing collagenase 1A (Sigma Aldrich)(1 mg/ml), collagenase X (Sigma Aldrich)(1 mg/ml) and bovine serum albumin (Sigma Aldrich) (2 mg/ml). […]
# Confluent myometrial cells were treated with/without OT (100 nM) for 1 hour before 3 PBS washes and the addition of […] IBMX (3-isobutyl-1-methylxanthine) in PBS for 5 minutes at 37° C. […] Lysates were normalized to protein concentration determined by Coomassie (Bradford) Protein Assay Kit and analysed as per manufacturers' protocol (Cisbio Gαs dynamic assay) using a PHERAstar FSX.
# human FLAG-tagged EP2 = biological target: T2, human FLAG-tagged EP2 (Homo sapiens, UniProt P43116); experiment: cAMP induction in HEK 293 cells stably expressing EP2 (Gαs readout); format: cell-based; conditions: HEK 293 EP2 cells; 5 minutes of stimulation; no significant difference between ligands; FIG. 2
# T2 construct: FLAG; expressed in transfected cells
# Description: EP2 is a dually coupled GPCR capable of activating downstream signalling pathways via Gαs (anti-labour inducing) and Gαq/11 (pro-labour inducing).
# HEK 293 cells were maintained in DMEM (Dulbecco's Modified Eagle Medium) containing 10% fetal bovine serum and 100 μ/ml penicillin-streptomycin, and cultured in 75 cm flasks at 37° C. in 95% air and 5% CO2. Cells at 95% confluency were passaged using 0.25% trypsin with 0.02% EDTA in phosphate-buffered saline (PBS).
# (§1) Confluent myometrial cells were treated with/without OT (100 nM) for 1 hour before 3 PBS washes and the addition of […] IBMX (3-isobutyl-1-methylxanthine) in PBS for 5 minutes at 37° C. This was exchanged for 0.5 μM IBMX in PBS plus either DMSO, butaprost (10 μM), AH13205 (10 μM) or PGN9856i (100 nM) for […]. Cells were lysed in Cisbio cAMP lysis buffer with 0.2% TritonX-100 and centrifuged for 15 minutes at 16,000 g. Lysates were normalized to protein concentration determined by Coomassie (Bradford) Protein Assay Kit and analysed as per manufacturers' protocol (Cisbio Gαs dynamic assay) using a PHERAstar FSX.
# human FLAG-EP2 [2] = biological target: T3, human FLAG-EP2 (Homo sapiens, UniProt P43116); experiment: Intracellular Ca2+ release in HEK 293 cells stably expressing EP2 (Fluo-4, confocal; Gαq/11 readout); format: cell-based; conditions: HEK 293 EP2 cells; butaprost 10 μM, AH13205 10 μM, PGN9856i 100 nM; vs vehicle; FIG. 3
# T3 construct: FLAG; expressed in transfected cells
# Description: To measure Gαq/11 activation, HEK 293 cells stably expressing human FLAG-EP2 were pre-labelled with a Ca2+ indicator dye and acutely stimulated with each ligand.
# HEK 293 cells, prepared following the same methodology as outlined in Example 1, were seeded onto Mattek dishes with 14 mm by 1.5 mm glass coverslips. Cells were incubated with Fluo-4am Ca2+ indicator (ThermoFisher) as per manufacturer's instructions. […]. Time-series images were acquired using a Leica SP5 confocal microscope, Leica LAS AF image acquisition software and a 488 nm excitation laser. HEK cells were imaged using a 10× dry objective. EP2 agonists (butaprost 10 μM, AH13205 10 μM or PGN9856i 100 nM) were added following measurement of basal fluorescence. Raw files were analysed using Fiji Time series analyser plugin to find the maximal fluorescent intensity, which was then averaged across cells in each condition.
# The maximal fluorescence intensity was measured by live confocal microscopy.
# EP2 [3] = biological target: T1, EP2; experiment: cAMP in non-labouring myometrial cells with/without oxytocin pre-treatment; format: cell-based; conditions: OT pre-treatment 1 hour, 100 nM; butaprost 10 μM, AH13205 10 μM, PGN9856i 100 nM; FIG. 10
# Description: Myometrial cells with/without oxytocin (OT) pre-treatment (1 hour, 100 nM) were treated with IBMX (5 minutes, 0.5 mM) before 1 minute stimulation with IBMX with/without either DMSO, butaprost (10 μM), AH13205 (10 μM) or PGN9856i (100 nM). cAMP concentrations were normalised to protein. Each patient's data normalised to butaprost response and shown as mean±SEM, n=6. One-sample t-test: #p<0.05. ##p<0.01. One-way ANOVA with Sidak's multiple comparison post-hoc test: **p<0.01.
# as §1
# human FLAG-EP2 [4] = biological target: T3, human FLAG-EP2; experiment: PGE2 release by ELISA in HEK 293 cells stably expressing EP2; format: cell-based; conditions: HEK 293 EP2 cells; 6 hours; butaprost 10 μM, AH13205 10 μM, PGN9856i 100 nM; FIG. 4
# Description: COX-2 is an inflammatory mediator that drives PGE2 production. The inventors had previously shown EP2-dependent COX-2 release to be downstream of Ca2+ release in primary human myometrium and that 6-hour agonist treatment is necessary for increasing COX-2 levels and PGE2 secretion (Kandola et al, 2014). HEK 293 cells stably expressing human FLAG-EP2 were stimulated for 6 hours with an EP2 agonist (butaprost 10 μM, AH13205 10 μM or PGN9856i 100 nM) or DMSO. 1 mL media was collected from COX-2 experiments and immediately frozen at −80 degrees Celsius. […]
# EP2 [5] = biological target: T1, EP2; experiment: Intracellular calcium in myometrial cells with/without oxytocin pre-treatment; format: cell-based; conditions: OT pre-treatment 1 hour, 100 nM; butaprost 10 μM, AH13205 10 μM, PGN9856i 100 nM; FIG. 11
# Description: Intracellular calcium response in myometrial cells with/without OT pre-treatment (1 hour, 100 nM) stimulated with butaprost (10 μM), AH13205 (10 μM) or PGN9856i (100 nM). Data are the mean of the maximum fluorescence intensity for each cell measured normalised to background (F-FO). Shown as fold-change over butaprost response. One-way ANOVA with Dunnett's multiple comparison post-hoc test: ##p<0.01. One-sample t-test: *p<0.05.
# β-adrenergic receptor = experiment: cAMP signalling in myometrial cells from different labouring groups, β-adrenergic agonist; format: cell-based, human; conditions: isoproterenol 10 μM; all labouring groups; FIG. 8
# Description: Myometrial cells from different labouring groups were treated with IBMX (5 minutes, 0.5 mM) before 1 minute stimulation with IBMX with/without butaprost (10 μM) or isoproterenol (10 μM). cAMP concentrations were normalised to protein. Data shown as mean±SEM, L−n=4. All other groups n=5. Each treatment compared to L− using one-way ANOVA with Dunnett's multiple comparison post-hoc test: **p<0.01, ***p<0.001, ****p<0.0001.
# T1 sequence (P43116 whole entry): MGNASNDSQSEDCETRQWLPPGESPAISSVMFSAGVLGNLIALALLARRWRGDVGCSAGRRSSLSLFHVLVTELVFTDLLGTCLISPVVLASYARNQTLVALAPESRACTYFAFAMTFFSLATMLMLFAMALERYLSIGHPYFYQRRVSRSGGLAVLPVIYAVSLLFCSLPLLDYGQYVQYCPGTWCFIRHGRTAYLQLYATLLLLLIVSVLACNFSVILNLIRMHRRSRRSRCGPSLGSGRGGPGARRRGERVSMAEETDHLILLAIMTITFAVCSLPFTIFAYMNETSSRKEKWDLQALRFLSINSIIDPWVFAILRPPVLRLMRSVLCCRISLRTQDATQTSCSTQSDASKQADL
# T3 sequence (P43116 whole entry): as above
# T2 sequence (P43116 whole entry): as above
cAMP efficacy at the maximal dose of each ligand (human FLAG-tagged EP2),effect of OTR activation on ligand's ability to increase intracellular cAMP (EP2 [3]),PGE2 levels (human FLAG-EP2 [4]),SMILES,release of intracellular cAMP (EP2 [1]),intracellular Ca2+ release (maximal fluorescence intensity) (human FLAG-EP2 [2]),calcium response with OT pre-treatment (EP2 [5]),agonist-induced cAMP signalling in labouring groups vs non-labouring (β-adrenergic receptor)
equally efficacious,significantly reduced,efficacious activators of the pathway,CCCCCC(O)c1ccc(C2CCC(=O)C2CCCCCCC(=O)O)cc1 (stereo not shown) [AH13205],able to elicit release of intracellular cAMP,enhanced Ca2+ significantly above vehicle,significantly enhance the calcium response,–
–,–,–,CC(C)NCC(O)c1ccc(O)c(O)c1 (stereo not shown) [isoproterenol],–,–,–,"but not isoproterenol-induced cAMP signalling, was significantly attenuated"
